Measured values taken from US10670605B2, “Cysteine reactive probes and uses thereof” (The Scripps Research Institute, priority 2015, dated 2020).
Values joined by “and” are separate entries in the source; they are usually repeats but may differ in a detail not shown here. Identical values can stand only once.

Assays:
Assay in all cases: Competitive isoTOP-ABPP, cell lysates
Format in all cases: binding
[1] = target: T1, AIP C122 (O00170) (Homo sapiens, UniProt O00170)
T1 sequence (O00170 1-330): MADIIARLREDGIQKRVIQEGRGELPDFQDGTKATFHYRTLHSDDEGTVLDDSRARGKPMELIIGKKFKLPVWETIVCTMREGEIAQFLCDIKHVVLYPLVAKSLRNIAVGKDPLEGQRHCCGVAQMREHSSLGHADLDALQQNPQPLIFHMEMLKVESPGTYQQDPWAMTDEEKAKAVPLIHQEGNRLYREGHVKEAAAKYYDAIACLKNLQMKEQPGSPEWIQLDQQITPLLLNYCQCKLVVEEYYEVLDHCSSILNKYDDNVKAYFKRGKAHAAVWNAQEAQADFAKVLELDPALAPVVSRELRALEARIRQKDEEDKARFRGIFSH

[2] = target: DCUN1D1 C115 (Q96GG9) (Homo sapiens, UniProt Q96GG9)
[3] = target: T2, PDIA6 C55 (Q15084) (Homo sapiens, UniProt Q15084)
T2 sequence (Q15084 20-440): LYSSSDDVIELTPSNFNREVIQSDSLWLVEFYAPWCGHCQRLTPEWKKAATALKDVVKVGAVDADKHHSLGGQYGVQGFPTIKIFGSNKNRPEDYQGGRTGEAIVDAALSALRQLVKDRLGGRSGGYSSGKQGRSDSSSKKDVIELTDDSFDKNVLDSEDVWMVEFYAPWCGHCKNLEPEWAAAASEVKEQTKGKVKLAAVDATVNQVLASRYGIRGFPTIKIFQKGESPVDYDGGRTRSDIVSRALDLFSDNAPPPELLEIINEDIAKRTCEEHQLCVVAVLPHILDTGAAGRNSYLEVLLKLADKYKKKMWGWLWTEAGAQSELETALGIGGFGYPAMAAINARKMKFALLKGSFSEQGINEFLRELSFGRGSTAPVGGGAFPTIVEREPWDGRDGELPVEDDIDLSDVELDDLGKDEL

[4] = target: SAMHD1 C522 (Q9Y3Z3) (Homo sapiens, UniProt Q9Y3Z3)
[5] = target: SMARCC2 C145 (Q8TAQ2) (Homo sapiens, UniProt Q8TAQ2)
[6] = target: STAT3 C259 (P40763) (Homo sapiens, UniProt P40763)
[7] = target: UBE2L3 C86 (P68036) (Homo sapiens, UniProt P68036)
[8] = target: T3, ACAT1 C196 (P24752) (Homo sapiens, UniProt P24752)
T3 sequence (P24752 34-427): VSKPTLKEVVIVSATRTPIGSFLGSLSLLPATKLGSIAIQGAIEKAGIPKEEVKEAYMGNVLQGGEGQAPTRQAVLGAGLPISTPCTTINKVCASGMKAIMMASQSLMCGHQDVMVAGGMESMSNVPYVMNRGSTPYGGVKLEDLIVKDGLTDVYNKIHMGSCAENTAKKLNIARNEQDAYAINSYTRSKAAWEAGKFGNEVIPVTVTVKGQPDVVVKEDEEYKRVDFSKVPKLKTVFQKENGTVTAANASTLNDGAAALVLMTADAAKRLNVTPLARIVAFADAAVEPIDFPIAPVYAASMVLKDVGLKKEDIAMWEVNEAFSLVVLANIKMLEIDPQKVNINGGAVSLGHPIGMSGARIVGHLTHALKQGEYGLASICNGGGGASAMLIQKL

[9] = target: T4, ACAT1 C413 (P24752) (Homo sapiens, UniProt P24752)
T4 sequence (P24752 34-427): T3 sequence (P24752 34-427)

[10] = target: T5, ACAT1 C126 (P24752) (Homo sapiens, UniProt P24752)
T5 sequence (P24752 34-427): T3 sequence (P24752 34-427)

isoTOP-ABPP ratio (reactivity profile), O00170_C122 ([1]; 500 μm in-vitro ramos_231) | isoTOP-ABPP ratio (reactivity profile), Q96GG9_C115 ([2]; 500 μm in-vitro ramos) | isoTOP-ABPP ratio (reactivity profile), Q96GG9_C115 ([2]; 500 μm in-vitro ramos_231) | isoTOP-ABPP ratio (reactivity profile), Q15084_C55 ([3]; 500 μm in-vitro ramos) | isoTOP-ABPP ratio (reactivity profile), Q15084_C55 ([3]; 500 μm in-vitro ramos_231) | isoTOP-ABPP ratio (reactivity profile), Q9Y3Z3_C522 ([4]; 500 μm in-vitro ramos) | isoTOP-ABPP ratio (reactivity profile), Q8TAQ2_C145 ([5]; 500 μm in-vitro ramos_231) | isoTOP-ABPP ratio (reactivity profile), P40763_C259 ([6]; 500 μm in-vitro ramos) | isoTOP-ABPP ratio (reactivity profile), P68036_C86 ([7]; 500 μm in-vitro ramos_231) | isoTOP-ABPP ratio (reactivity profile), P24752_C196 ([8]; 500 μm in-vitro ramos) | isoTOP-ABPP ratio (reactivity profile), P24752_C196 ([8]; 500 μm in-vitro ramos_231) | isoTOP-ABPP ratio (reactivity profile), P24752_C413 ([9]; 500 μm in-vitro ramos) | isoTOP-ABPP ratio (reactivity profile), P24752_C413 ([9]; 500 μm in-vitro ramos_231) | isoTOP-ABPP ratio (reactivity profile), P24752_C126 ([10]; 500 μm in-vitro ramos) | isoTOP-ABPP ratio (reactivity profile), P24752_C126 ([10]; 500 μm in-vitro ramos_231) | isoTOP-ABPP ratio (reactivity profile), Q9Y3Z3_C522 ([4]; 500 μm in-vitro ramos_231) | Compound | isoTOP-ABPP ratio (reactivity profile), P68036_C86 ([7]; 500 μm in-vitro ramos) | isoTOP-ABPP ratio (reactivity profile), O00170_C122 ([1]; 500 μm in-vitro ramos) | isoTOP-ABPP ratio (reactivity profile), Q8TAQ2_C145 ([5]; 500 μm in-vitro ramos) | isoTOP-ABPP ratio (reactivity profile), P40763_C259 ([6]; 500 μm in-vitro ramos_231)
1.4 | 1.0 | 1.0 | 2.1 | 1.1 | 1.4 | 1.2 | 2.9 | 1.2 | 1.1 | 1.0 | 1.4 | 1.4 | 1.4 | 1.2 | – | O=C(CCl)NC12CC3CC(CC(C3)C1)C2 [compound 21] | 2.0 | – | – | –
0.4 | 1.0 | 1.1 | 1.2 | 0.8 and 1.1 | 0.9 | 0.9 | – | 1.2 and 0.9 | 1.1 | 0.9 and 1.0 | 1.3 | 0.9 and 1.1 | 1.3 | 0.9 and 1.0 | 0.8 and 1.0 | CC(C)CCOCCNC(=O)CCl [compound 27] | – | 1.0 | 1.2 | 0.7

Compound | isoTOP-ABPP ratio (reactivity profile), O00170_C122 ([1]; 500 μm in-vitro ramos_231) | isoTOP-ABPP ratio (reactivity profile), Q96GG9_C115 ([2]; 500 μm in-vitro ramos) | isoTOP-ABPP ratio (reactivity profile), Q96GG9_C115 ([2]; 500 μm in-vitro ramos_231) | isoTOP-ABPP ratio (reactivity profile), Q15084_C55 ([3]; 500 μm in-vitro ramos) | isoTOP-ABPP ratio (reactivity profile), Q15084_C55 ([3]; 500 μm in-vitro ramos_231) | isoTOP-ABPP ratio (reactivity profile), Q9Y3Z3_C522 ([4]; 500 μm in-vitro ramos) | isoTOP-ABPP ratio (reactivity profile), Q8TAQ2_C145 ([5]; 500 μm in-vitro ramos_231) | isoTOP-ABPP ratio (reactivity profile), P40763_C259 ([6]; 500 μm in-vitro ramos) | isoTOP-ABPP ratio (reactivity profile), P68036_C86 ([7]; 500 μm in-vitro ramos_231) | isoTOP-ABPP ratio (reactivity profile), P24752_C196 ([8]; 500 μm in-vitro ramos) | isoTOP-ABPP ratio (reactivity profile), P24752_C196 ([8]; 500 μm in-vitro ramos_231) | isoTOP-ABPP ratio (reactivity profile), P24752_C413 ([9]; 500 μm in-vitro ramos) | isoTOP-ABPP ratio (reactivity profile), P24752_C413 ([9]; 500 μm in-vitro ramos_231) | isoTOP-ABPP ratio (reactivity profile), P24752_C126 ([10]; 500 μm in-vitro ramos) | isoTOP-ABPP ratio (reactivity profile), P24752_C126 ([10]; 500 μm in-vitro ramos_231) | isoTOP-ABPP ratio (reactivity profile), Q9Y3Z3_C522 ([4]; 500 μm in-vitro ramos_231) | isoTOP-ABPP ratio (reactivity profile), P68036_C86 ([7]; 500 μm in-vitro ramos) | isoTOP-ABPP ratio (reactivity profile), O00170_C122 ([1]; 500 μm in-vitro ramos) | isoTOP-ABPP ratio (reactivity profile), Q8TAQ2_C145 ([5]; 500 μm in-vitro ramos) | isoTOP-ABPP ratio (reactivity profile), P40763_C259 ([6]; 500 μm in-vitro ramos_231)
O=C(CCl)N1CCOCC1 [compound 22] | 1.3 | 0.8 | 1.0 | 1.6 | 2.1 | 0.8 | – | – | – | 0.7 | 1.4 | 1.1 | 1.1 | 1.7 | 2.4 | – | 0.8 | 1.1 | 1.2 | 2.0
